Laboratory results taken from patent publication US20100261246A1, “METHOD FOR INHIBITING TELOMERASE REACTION” (PANASONIC CORPORATION, priority 2009, published 2010).

Experiments:
[1] = tested on: G-quadruplex structure (human telomeric oligo DNA); experiment: Absorbance 480 to 800 nm of phthalocyanine mixed with G-quadruplex solutions; assay type: binding; settings: 15 μM compound solution, 50 mM HEPES, 100 mM NaCl, pH7
Experimental: Hereinafter, the interaction between anionic phthalocyanines and various DNAs was studied in Examples 6, 7, 8 and 9. For this purpose, a solution containing a G-quadruplex structure, a solution including a single-stranded DNA, and a solution containing a double-stranded DNA were first prepared according to the following procedures.
A solution of 50 mM HEPES and 100 mM NaCl, pH7 (total volume: 100 μL) containing a single-stranded DNA consisting of a sequence of 5′-[…]-3′ (SEQ ID NO: 2; this sequence being similar to a sequence of a human telomere portion, and thus the DNA referred to as “human telomeric oligo DNA” hereafter) was incubated at 90° C. for 5 min, and thereafter cooled to 0° C. at a rate of temperature fall of 2° C./min, followed by finally incubating at 0° C. for 2 hrs.
The concentrations of the human telomeric oligo DNA contained in the solution were 0, 0.5, 2, 5, 10, 25, 50 and 100 μM.
The absolute values of the positive and negative peaks were maximized for the solution having the human telomeric oligo DNA concentration of 100 μM, and dropped in the order of 50, 25, 10, 5, 2 and 0.5 μM. […] Hereafter, G-quadruplex solutions prepared from the solutions having human telomeric oligo DNA concentrations of 100, 50, 25, 10, 5, 2 and 0.5 μM are referred to as G-quadruplex solutions A, B, C, D, E, F and G, respectively. On the other hand, the solution without the human telomeric oligo DNA contained therein is referred to as NC solution.
First, a solution of 50 mM HEPES and 100 mM NaCl, pH7 (total volume: 20 μL) containing 15 μM CuPC was prepared. Then, this CuPC solution was mixed with each of the G-quadruplex solutions C, D, E and F and the NC solution, and the absorbance of these liquid mixtures were measured at 480 to 800 nm.
First, a solution of 50 mM HEPES and 100 mM NaCl, pH7 (total volume: 20 μL) containing 15 μM NiPC was prepared. Then, this NiPC solution was mixed with each of the G-quadruplex solutions D, E, F and G, and the NC solution, and the absorbance of these liquid mixtures were measured at 480 to 800 nm.
First, a solution of 50 mM HEPES and 100 mM NaCl, pH7 (total volume: 20 μL) containing 15 μM PC was prepared. Then, this PC solution was mixed with each of the G-quadruplex solutions D, E, F and G, and the NC solution, and the absorbance of these liquid mixtures were measured at 480 to 800 nm.
First, a solution of 50 mM HEPES and 100 mM NaCl, pH7 (total volume: 20 μL) containing 15 μM CoPC was prepared. Then, this CoPC solution was mixed with each of the G-quadruplex solutions B, C, D and G, and the NC solution, and the absorbance of these liquid mixtures were measured at 480 to 800 nm.

single-stranded DNA = experiment: Absorbance 480 to 800 nm of phthalocyanine mixed with single-stranded DNA solution; assay type: binding; settings: 15 μM compound solution, DNA 50 μM, pH7
Experimental: A solution of 50 mM HEPES and 100 mM NaCl, pH7 (total volume: 100 μL) containing a single-stranded DNA consisting of a sequence of 5′-[…]-3′ sequence (SEQ ID NO: 3) at a concentration of 50 μM was prepared, which was incubated at 90° C. for 5 min, and thereafter cooled to 0° C. at a rate of temperature fall of 2° C./min, followed by finally incubating at 0° C. for 2 hrs. The DNA in thus resulting solution was a single-stranded DNA even after the incubation (hereafter, the solution referred to as “single-stranded DNA solution”).
(§1) Next, the aforementioned CuPC solution and single-stranded DNA solution, and the aforementioned CuPC solution and double-stranded DNA solution were similarly mixed, respectively. And then the absorbance of these liquid mixtures was measured at 480 to 800 nm. FIG. 9(A) and FIG. 9(B) show the results of the measurement in the cases of the single-stranded DNA solution and the double-stranded DNA solution, respectively.
as §1, with “NiPC” for “CuPC”, “respectively;” for “respectively. And then”, “11(A)” for “9(A)”, “11(B)” for “9(B)”, “respectively. In each drawing, the result obtained when the NC solution was used is also shown together.” for “respectively.”
as §1, with “PC” for “CuPC”, “respectively;” for “respectively. And then”, “mixture” for “mixtures”, “13(A)” for “9(A)”, “13(B)” for “9(B)”, “respectively. In each drawing, the result obtained when the NC solution was used is also shown together.” for “respectively.”
as §1, with “CoPC” for “CuPC”, “respectively, and” for “respectively. And”, “15(A)” for “9(A)”, “15(B)” for “9(B)”, “respectively. In each drawing, the result obtained when the NC solution was used is also shown together.” for “respectively.”

Substance	interaction with the G-quadruplex structure (absorption peak) [1]	interaction with the single-stranded DNA (absorption spectrum vs NC solution) (single-stranded DNA)
Copper(II) phthalocyanine-3,4′,4″,4′″-tetrasulfonic acid tetrasodium salt [CuPC]	an interaction occurred	an interaction did not occur
Nickel(II) phthalocyanine tetrasulfonic acid tetrasodium salt [NiPC]	an interaction occurred	an interaction did not occur
